Laboratory results as given in patent US8492555B2, “Salts of isobutyric acid (1 R*, 2R*, 4R*)-2-(2-{[3-(4,7-dimethoxy-1 H-benzoimidazol-2-yl)-methyl-amino}-ethyl)-5-phenyl-bicyclo[2.2.2]oct-5-en-2-yl ester” (Actelion Pharmaceuticals Ltd., priority 2008, dated 2013).
pEC50, pIC50: −log10 of the molar value.

Key:
human Cav1.2 channel = target: T1, human Cav1.2 channel (Homo sapiens, UniProt Q13936); experiment: In vitro assay L channel (FLIPR, KCl-induced calcium fluorescence); format: cell-based; details: HEK293 cells expressing human Cav1.2 with β-2a and α2δ-1; 20 mM KCl; read-out: L channel antagonistic activity IC50
T1 construct: expressed in transfected cells; host or cells: HEK293
T1 sequence (Q13936 whole entry): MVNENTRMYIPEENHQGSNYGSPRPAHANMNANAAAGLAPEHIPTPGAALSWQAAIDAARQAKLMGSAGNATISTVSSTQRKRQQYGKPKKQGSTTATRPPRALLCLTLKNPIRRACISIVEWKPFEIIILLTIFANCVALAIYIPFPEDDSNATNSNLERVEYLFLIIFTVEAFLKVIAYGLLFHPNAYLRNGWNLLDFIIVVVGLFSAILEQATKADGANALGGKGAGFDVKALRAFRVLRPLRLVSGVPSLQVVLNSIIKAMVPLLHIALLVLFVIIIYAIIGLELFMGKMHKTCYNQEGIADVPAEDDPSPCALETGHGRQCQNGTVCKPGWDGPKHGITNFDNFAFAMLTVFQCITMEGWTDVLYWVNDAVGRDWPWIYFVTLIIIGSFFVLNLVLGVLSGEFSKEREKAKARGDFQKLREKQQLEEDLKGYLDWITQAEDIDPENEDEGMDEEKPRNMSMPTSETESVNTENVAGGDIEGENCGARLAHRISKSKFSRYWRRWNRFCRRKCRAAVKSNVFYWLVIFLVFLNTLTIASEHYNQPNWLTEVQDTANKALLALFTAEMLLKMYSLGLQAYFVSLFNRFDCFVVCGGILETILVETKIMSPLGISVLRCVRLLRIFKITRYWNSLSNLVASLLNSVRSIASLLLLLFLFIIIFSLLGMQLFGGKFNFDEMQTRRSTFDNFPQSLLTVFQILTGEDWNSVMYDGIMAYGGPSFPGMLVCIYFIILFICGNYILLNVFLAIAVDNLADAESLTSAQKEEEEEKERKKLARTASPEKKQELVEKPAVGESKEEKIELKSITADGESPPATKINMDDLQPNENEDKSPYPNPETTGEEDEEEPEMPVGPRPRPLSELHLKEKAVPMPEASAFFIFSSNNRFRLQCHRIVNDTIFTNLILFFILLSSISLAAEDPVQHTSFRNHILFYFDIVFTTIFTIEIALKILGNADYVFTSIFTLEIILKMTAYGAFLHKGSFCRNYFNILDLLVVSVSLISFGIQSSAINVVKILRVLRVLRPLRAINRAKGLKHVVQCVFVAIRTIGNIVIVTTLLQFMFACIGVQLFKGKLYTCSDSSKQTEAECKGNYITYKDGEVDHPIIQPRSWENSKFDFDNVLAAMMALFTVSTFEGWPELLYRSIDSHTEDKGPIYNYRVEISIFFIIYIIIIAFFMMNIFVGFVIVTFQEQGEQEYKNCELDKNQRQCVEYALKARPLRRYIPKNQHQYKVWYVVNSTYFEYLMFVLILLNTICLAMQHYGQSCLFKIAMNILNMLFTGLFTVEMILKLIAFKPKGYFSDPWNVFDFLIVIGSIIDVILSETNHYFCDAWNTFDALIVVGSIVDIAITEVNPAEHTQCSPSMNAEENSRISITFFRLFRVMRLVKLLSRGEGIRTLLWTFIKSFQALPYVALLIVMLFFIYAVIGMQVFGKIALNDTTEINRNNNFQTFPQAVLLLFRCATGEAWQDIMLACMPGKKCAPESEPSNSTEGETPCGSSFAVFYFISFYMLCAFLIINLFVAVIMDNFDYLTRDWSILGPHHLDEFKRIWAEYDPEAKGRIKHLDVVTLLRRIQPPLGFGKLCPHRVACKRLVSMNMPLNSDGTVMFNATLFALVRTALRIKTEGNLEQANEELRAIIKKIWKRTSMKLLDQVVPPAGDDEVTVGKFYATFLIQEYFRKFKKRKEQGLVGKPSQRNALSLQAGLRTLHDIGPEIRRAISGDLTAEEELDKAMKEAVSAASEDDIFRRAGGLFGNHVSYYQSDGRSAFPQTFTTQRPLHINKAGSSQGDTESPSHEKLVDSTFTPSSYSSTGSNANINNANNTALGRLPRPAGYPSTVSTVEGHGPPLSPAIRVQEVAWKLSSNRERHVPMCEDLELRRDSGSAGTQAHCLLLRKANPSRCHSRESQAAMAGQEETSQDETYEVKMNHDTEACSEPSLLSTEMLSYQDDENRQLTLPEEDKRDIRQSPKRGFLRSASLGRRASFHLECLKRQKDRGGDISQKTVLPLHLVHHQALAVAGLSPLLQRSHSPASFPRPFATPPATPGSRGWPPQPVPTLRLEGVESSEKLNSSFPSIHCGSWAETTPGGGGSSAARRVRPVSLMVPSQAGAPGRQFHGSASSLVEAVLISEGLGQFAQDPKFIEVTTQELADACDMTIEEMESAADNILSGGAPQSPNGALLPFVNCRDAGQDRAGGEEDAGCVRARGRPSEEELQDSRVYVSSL
T1 sequence (Q08289 whole entry partner): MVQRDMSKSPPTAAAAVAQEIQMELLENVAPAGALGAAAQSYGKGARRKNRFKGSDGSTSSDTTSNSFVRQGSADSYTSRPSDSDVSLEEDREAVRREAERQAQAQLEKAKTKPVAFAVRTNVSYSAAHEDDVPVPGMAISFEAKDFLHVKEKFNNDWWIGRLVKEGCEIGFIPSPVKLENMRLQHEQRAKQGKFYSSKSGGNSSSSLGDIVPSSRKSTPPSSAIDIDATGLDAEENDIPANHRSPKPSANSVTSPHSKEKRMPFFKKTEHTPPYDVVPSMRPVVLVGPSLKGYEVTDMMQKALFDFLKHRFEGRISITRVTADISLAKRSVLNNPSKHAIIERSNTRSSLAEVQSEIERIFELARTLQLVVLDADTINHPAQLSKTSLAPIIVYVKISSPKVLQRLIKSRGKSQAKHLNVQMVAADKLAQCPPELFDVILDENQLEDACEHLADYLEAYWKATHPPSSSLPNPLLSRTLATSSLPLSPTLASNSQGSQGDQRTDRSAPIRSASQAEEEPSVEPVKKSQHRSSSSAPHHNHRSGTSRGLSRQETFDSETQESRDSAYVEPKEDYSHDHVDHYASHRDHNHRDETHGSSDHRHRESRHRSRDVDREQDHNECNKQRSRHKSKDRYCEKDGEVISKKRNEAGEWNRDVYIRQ
T1 sequence (P54289 25-946 partner limits assumed): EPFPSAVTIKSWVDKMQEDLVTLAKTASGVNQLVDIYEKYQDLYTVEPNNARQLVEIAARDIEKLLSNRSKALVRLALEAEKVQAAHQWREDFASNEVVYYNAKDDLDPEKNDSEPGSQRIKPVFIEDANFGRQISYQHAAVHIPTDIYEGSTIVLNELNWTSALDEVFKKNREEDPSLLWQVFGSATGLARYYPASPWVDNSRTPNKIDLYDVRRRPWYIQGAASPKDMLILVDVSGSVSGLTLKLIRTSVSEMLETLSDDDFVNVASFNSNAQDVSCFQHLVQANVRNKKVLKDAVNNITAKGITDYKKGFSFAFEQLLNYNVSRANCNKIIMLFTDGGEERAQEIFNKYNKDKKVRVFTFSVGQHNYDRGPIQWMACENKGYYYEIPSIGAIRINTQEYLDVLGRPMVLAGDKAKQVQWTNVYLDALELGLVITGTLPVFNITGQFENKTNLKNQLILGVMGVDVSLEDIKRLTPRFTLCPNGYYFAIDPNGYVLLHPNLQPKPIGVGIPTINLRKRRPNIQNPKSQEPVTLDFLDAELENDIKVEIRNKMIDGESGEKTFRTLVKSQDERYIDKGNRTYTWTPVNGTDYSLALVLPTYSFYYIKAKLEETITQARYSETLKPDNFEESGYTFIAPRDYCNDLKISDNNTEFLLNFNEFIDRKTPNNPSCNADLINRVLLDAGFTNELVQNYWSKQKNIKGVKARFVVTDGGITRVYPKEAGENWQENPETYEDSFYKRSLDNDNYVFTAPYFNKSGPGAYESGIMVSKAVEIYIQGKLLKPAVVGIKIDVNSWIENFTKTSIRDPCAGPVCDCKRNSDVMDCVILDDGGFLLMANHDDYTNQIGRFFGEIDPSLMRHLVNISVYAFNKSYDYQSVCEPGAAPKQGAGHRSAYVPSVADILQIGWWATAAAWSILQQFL
T1 sequence (P54289 947-1103 partner limits assumed): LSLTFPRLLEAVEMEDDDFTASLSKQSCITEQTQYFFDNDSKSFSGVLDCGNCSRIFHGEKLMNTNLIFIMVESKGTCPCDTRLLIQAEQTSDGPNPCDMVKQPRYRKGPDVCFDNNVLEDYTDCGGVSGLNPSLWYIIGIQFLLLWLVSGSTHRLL
Description: The L channel antagonistic activity (IC50 values) of Reference Examples 1A, 2A, and 3A is determined in accordance with the following experimental method.
Human embryonic kidney (HEK293) cells expressing the human Cav1.2 channel in addition to the auxiliary subunits β-2a and α2δ-1, are grown in culture medium (DMEM containing 10% heat-inactivated fetal calf serum (FCS), 100 U/ml penicillin, 100 μg/ml streptomycin, 100 μg/ml G418, 40 μg/ml zeocin and 100 μg/ml hygromycin). The cells are seeded at 20.000 cells/well into 384-well black clear bottom sterile plates (poly-L-lysine-coated, Becton Dickinson). The seeded plates are incubated overnight at 37° C. in 5% CO2. The KCl solution is prepared as 80 mM stock solution in assay buffer (HBSS containing 0.1% BSA, 20 mM HEPES, 0.375 g/l NaHCO3, adjusted to pH 7.4 with NaOH) for use in the assay at a final concentration of 20 mM. Antagonists are prepared as 10 mM stock solutions in DMSO, then diluted in 384 w plates first in DMSO, then in assay buffer to obtain 3× stocks. On the day of the assay, 25 μl of staining buffer (HBSS containing 20 mM HEPES, 0.375 g/l NaHCO3, and 3 μM of the fluorescent calcium indicator fluo-4 AM (1 mM stock solution in DMSO, containing 10% pluronic) is added to each well of the seeded plate. The 384-well cell-plates are incubated for 60 min at 37° C. in 5% CO2 followed by washing with 2×50 μl per well using assay buffer leaving 50 μl/well of this buffer for equilibration at room temperature (30-60 min). Within the Fluorescent Imaging Plate Reader (FLIPR, Molecular Devices), antagonists are added to the plate in a volume of 25 μl/well, incubated for 3 min and finally 25 μl/well of KCl solution is added for cellular depolarization. Fluorescence is measured for each well at 2 second intervals for 8 minutes, and the area under the curve of each fluorescence peak is compared to the area of the fluorescence peak induced by 20 mM KCl with vehicle in place of antagonist. […]

isolated mouse hearts = experiment: Effect on isolated hearts according to the Langendorff method; details: read-out: EC50 Langendorff experiment
Description: Effect on Isolated Hearts According to the Langendorff Method (Lgdff)
The Reference Examples 1A, 2A, and 3A were tested for their potential to reduce blood pressure and their effect on the contractility of the heart muscle. EC50 values on isolated mouse hearts were determined according to Literature (Doring H J., The isolated perfused heart according to Langendorff technique—function—application, Physiol. Bohemoslov. 1990, 39(6), 481-504; Kligfield P, Homer H, Brachfeld N., A model of graded ischemia in the isolated perfused rat heart, J. Appl. Physiol. 1976 June, 40(6), 1004-8).

[1] = Hygroscopicity by scanned gravimetric vapour sorption; format: physicochemical; details: upwards scan; for Hygroscopicity classification: European Pharmacopea Technical Guide (1999), 40% to 80% relative humidity; for Hygroscopicity mass change: between 40% and 80% relative humidity
Text: The mass change between 40% relative humidity and 80% relative humidity in the upwards scan was considered.

SMILES	pIC50 (human Cav1.2 channel)	pEC50 (isolated mouse hearts)	Hygroscopicity classification [1]	Hygroscopicity mass change [1]
COc1ccc(OC)c2[nH]c(CCCN(C)CC[C@]3(OC(=O)C(C)C)C[C@H]4CC[C@@H]3C=C4c3ccccc3)nc12 [Reference Example 3A, Isobutyric acid (1R,2R,4R)-2-(2-{[3-(4,7-dimethoxy-1H-benzoimidazol-2-yl)-propyl]-methyl-amino}-ethyl)-5-phenyl-bicyclo[2.2.2]oct-5-en-2-yl ester]	6.36 to 6.81	–	–	–
COc1ccc(OC)c2[nH]c(CCCN(C)CC[C@]3(OC(=O)C(C)C)C[C@H]4CC[C@@H]3C=C4c3ccccc3)nc12 (racemic) [Reference Example 1A, rac-Isobutyric acid (1R*,2R*,4R*)-2-(2-{[3-(4,7-dimethoxy-1H-benzoimidazol-2-yl)-propyl]-methyl-amino}-ethyl)-5-phenyl-bicyclo[2.2.2]oct-5-en-2-yl ester]	6.36 to 6.81	8.30	–	–
Br.Br.COc1ccc(OC)c2[nH]c(CCCN(C)CCC3(OC(=O)C(C)C)CC4CCC3C=C4c3ccccc3)nc12 (stereo not drawn) [di-hydrobromic acid salt of COMPOUND]	–	–	Non hygroscopic	0.1%
COc1ccc(OC)c2[nH]c(CCCN(C)CC[C@@]3(OC(=O)C(C)C)C[C@@H]4CC[C@H]3C=C4c3ccccc3)nc12 [Reference Example 2A, Isobutyric acid (1S,2S,4S)-2-(2-{[3-(4,7-dimethoxy-1H-benzoimidazol-2-yl)-propyl]-methyl-amino}-ethyl)-5-phenyl-bicyclo[2.2.2]oct-5-en-2-yl ester]	6.36 to 6.81	–	–	–
COc1ccc(OC)c2[nH]c(CCCN(C)CCC3(OC(=O)C(C)C)CC4CCC3C=C4c3ccccc3)nc12.O=C(O)/C=C\C(=O)O.O=C(O)/C=C\C(=O)O (stereo not drawn) [di-maleic acid salt of COMPOUND]	–	–	Non hygroscopic	0.1%
COc1ccc(OC)c2[nH]c(CCCN(C)CCC3(OC(=O)C(C)C)CC4CCC3C=C4c3ccccc3)nc12.COc1ccc(OC)c2[nH]c(CCCN(C)CCC3(OC(=O)C(C)C)CC4CCC3C=C4c3ccccc3)nc12.O=C(O)/C=C/C(=O)O.O=C(O)/C=C/C(=O)O.O=C(O)/C=C/C(=O)O (stereo not drawn) [sesqui-fumaric acid salt of COMPOUND]	–	–	Non hygroscopic	0.1%
COc1ccc(OC)c2[nH]c(CCCN(C)CCC3(OC(=O)C(C)C)CC4CCC3C=C4c3ccccc3)nc12.Cl.Cl (stereo not drawn) [di-hydrochloric acid salt of COMPOUND]	–	–	Slightly hygroscopic (mass	change 0.5%)
